The values below come from ChEMBL document CHEMBL4373705, “Design and synthesis of sulfonamidophenylethylamides as novel cardiac myosin activator” (2019).

For one test, the species on record is Bos taurus. Nature of the test: Activation of bovine cardiac actin thin filament complex-stimulated myosin S1 ATPase activity assessed as inorganic phosphate liberated at 10 uM incubated for 10 mins in presence of ATP by spectrophotometry relative to control.
Test [1] is filed under the species Rattus norvegicus. Nature of the test: Activation of myosin ATPase activity in Sprague-Dawley rat ventricular myocytes assessed as increase in ventricular cell shortening by measuring change in ventricular cell contractility at 5 uM by electrophysiology relative to control.
Test [2] concerns Rattus norvegicus. Put plainly: Positive […] activity in Sprague-Dawley rat assessed as increase in ejection fraction at 16 ug/kg/min, iv for 3 mins by echocardiography relative to control. In kind it is functional.
The test system of test [3] is Rattus norvegicus. Nature of the test: Positive […] activity in Sprague-Dawley rat assessed as increase in fractional shortening at 16 ug/kg/min, iv for 3 mins by echocardiography relative to control. In kind it is functional.
For a further test, the species on record is Gallus gallus. Nature of the test: Activation of chicken gizzard muscle actin and tropomyosin-stimulated myosin S1 ATPase activity assessed as inorganic phosphate liberated at 100 uM incubated for 10 mins in presence of ATP by spectrophotometry relative to control.
For a further test, the species on record is Oryctolagus cuniculus. Nature of the test: Activation of rabbit skeletal muscle actin thin filament complex-stimulated myosin S1 ATPase activity assessed as inorganic phosphate liberated at 100 uM incubated for 10 mins in presence of ATP by spectrophotometry relative to control.
For test [4], the species on record is Rattus norvegicus. Put plainly: Activation of myosin ATPase activity in Sprague-Dawley rat ventricular myocytes assessed as increase in ventricular cell shortening by measuring change in ventricular cell contractility at 1 uM by electrophysiology relative to control.

Take `NS(=O)(=O)c1ccc(CNC(=O)CCCCc2ccccc2)cc1`: the Activity in the test listed under Bos taurus was 44.4%.
As for `CN(C)S(=O)(=O)c1ccc(CCNC(=O)NCCCc2ccccc2)cc1`, the Activity in the test filed under Bos taurus worked out at 91.6%; in the test listed under Rattus norvegicus [1], 47.9%.
For the molecule `O=C(CCCc1ccccc1)NCCCc1ccccc1`, the values for the Activity in the test filed under Bos taurus, with Rattus norvegicus [2] and in the test on Rattus norvegicus [3] were 62%, 9.08% and 13.85%, respectively.
In the case of `CNS(=O)(=O)c1ccc(CN(C)C(=O)CCCCc2ccccc2)cc1`, the Activity was 55.9% in the test listed under Bos taurus, 9.95% in the test with Rattus norvegicus [2] and 15.75% in the test on Rattus norvegicus [3].
Consider `CN(CCCc1ccccc1)C(=O)CCCc1ccc(S(=O)(=O)N(C)C)cc1`, for which the Activity in the test listed under Bos taurus is 55%; in the test listed under Rattus norvegicus [1], 46.5%; with Rattus norvegicus [2], 14.08%; in the test listed under Gallus gallus, -3.4%; in the test on Rattus norvegicus [3], 24.69%; in the test filed under Oryctolagus cuniculus it was 2.3%.
Turning to `O=C(CCCCc1ccccc1)NCc1ccccc1`, the Activity in the test filed under Bos taurus was 33.1%.
Turning to `O=C(CCCCc1ccccc1)NCCc1ccccc1`, the Activity in the test listed under Bos taurus is 39.1%; in the test filed under Rattus norvegicus [1], 21.3%; in the test with Rattus norvegicus [2], 13.97%; in the test listed under Gallus gallus, -2.8%; in the test with Rattus norvegicus [3], 22.8%; in the test listed under Oryctolagus cuniculus, -2.9%.
Consider `CNS(=O)(=O)c1ccc(CCN(C)C(=O)CCCCc2ccccc2)cc1`, for which the Activity worked out at 46.5% in the test filed under Bos taurus, 9.22% with Rattus norvegicus [2] and 13.51% in the test on Rattus norvegicus [3].
For `NS(=O)(=O)c1ccc(CCNC(=O)CCCCc2ccccc2)cc1`, the Activity in the test filed under Bos taurus was found to be 78.7%; in the test on Rattus norvegicus [2] it was 2.7%; in the test with Rattus norvegicus [3] it was 4.48%.
Consider `CN(C)S(=O)(=O)c1ccc(CNC(=O)CCCCc2ccccc2)cc1`, for which the Activity in the test filed under Bos taurus turned out to be 20%.
For the molecule `COC(=O)N1CCN(Cc2cccc(NC(=O)Nc3ccc(C)nc3)c2F)CC1`, the Activity in the test listed under Rattus norvegicus [4] is 33.8%; in the test listed under Bos taurus, 58%; in the test listed under Gallus gallus, -5.5%; in the test listed under Oryctolagus cuniculus, 2.8%.
On to `COc1ccccc1CCNC(=O)CCCCc1ccccc1`, for which the Activity in the test listed under Bos taurus was determined as 57.4%; with Rattus norvegicus [2], 9.18%; in the test with Rattus norvegicus [3], 13.06%.
For the molecule `O=C(CCCCc1ccccc1)NCCc1ccccc1F`, the Activity in the test filed under Bos taurus was 43.3%.
Take `CCN(CCc1ccc(S(=O)(=O)N(C)C)cc1)C(=O)CCCCc1ccccc1`: the Activity in the test filed under Bos taurus was found to be 13.9%.
On to `CN(CCCc1ccccc1)C(=O)NCCc1ccc(S(=O)(=O)N(C)C)cc1`, for which the Activity in the test filed under Bos taurus came out at 47.6%; in the test listed under Rattus norvegicus [1], 63.5%.
As for `Cc1ccc(CCNC(=O)CCCCc2ccccc2)cc1`, in the test listed under Bos taurus, the Activity was 62.9%.
Turning to `CCN(Cc1ccc(S(=O)(=O)N(C)C)cc1)C(=O)CCCCc1ccccc1`, the Activity in the test filed under Bos taurus worked out at 17.5%.
With `CN(C)S(=O)(=O)c1ccc(CCNC(=O)CCCCc2ccccc2)cc1`, the Activity in the test listed under Bos taurus is 59%; in the test listed under Rattus norvegicus [1], 18.6%; in the test on Rattus norvegicus [2] it was 9.75%; in the test filed under Gallus gallus, 3%; with Rattus norvegicus [3], 14.85%; in the test listed under Oryctolagus cuniculus, -2.8%.
In the case of `CN(CCc1ccc(S(=O)(=O)N(C)C)cc1)C(=O)CCCCc1ccccc1`, the Activity in the test filed under Bos taurus is 48.5%; in the test listed under Rattus norvegicus [1], 88.2%; in the test on Rattus norvegicus [2], 15.28%; in the test filed under Gallus gallus, 5.2%; in the test on Rattus norvegicus [3], 26.21%; in the test listed under Oryctolagus cuniculus it was -4.8%.
`Cc1ccc2c(c1)C(=O)[C@]1(O)CCN(c3ccccc3)C1=N2`: the Activity in the test listed under Gallus gallus is -35.7%; in the test filed under Oryctolagus cuniculus, -50.7%.
For `CCN(CC)S(=O)(=O)c1ccc(CCN(C)C(=O)CCCCc2ccccc2)cc1`, the Activity in the test listed under Bos taurus was determined as 17.9%.
As for `CN(Cc1ccc(S(=O)(=O)N(C)C)cc1)C(=O)CCCCc1ccccc1`, in the test listed under Bos taurus, the Activity is 24.1%.
As to `CN(C)S(=O)(=O)c1ccc(CCCC(=O)NCCCc2ccccc2)cc1`, the Activity in the test listed under Bos taurus is 50.3%; in the test listed under Rattus norvegicus [1], 20.5%; in the test with Rattus norvegicus [2] it was 11.65%; in the test filed under Gallus gallus, 4.1%; with Rattus norvegicus [3], 17.55%; in the test filed under Oryctolagus cuniculus it was -1.9%.
On to `O=C(NCCCc1ccccc1)NCCc1ccccc1`, for which the Activity in the test filed under Bos taurus turned out to be 51.1%.
In the case of `CN(C)S(=O)(=O)c1ccc(CCCC(=O)N2CCC(c3ccccc3)CC2)cc1`, the Activity in the test listed under Bos taurus came to 29.5%.
For `O=C(NCCCc1ccccc1)NCc1ccccc1`, the Activity in the test listed under Bos taurus worked out at 53.3%.
Turning to `CN(CCc1ccc(S(=O)(=O)N2CCOCC2)cc1)C(=O)CCCCc1ccccc1`, the Activity in the test listed under Bos taurus was 14.9%.
Turning to `CN(CCc1ccc(S(=O)(=O)N(C)C)cc1)C(=O)NCCCc1ccccc1`, the Activity was 52.3% in the test filed under Bos taurus and 45.5% in the test listed under Rattus norvegicus [1].
`CN(C)S(=O)(=O)c1ccc(CCCC(=O)N2CCN(c3ccccc3)CC2)cc1`: the Activity in the test filed under Bos taurus came to 14%.
Consider `COc1ccc(CCNC(=O)CCCCc2ccccc2)cc1OC`, for which the Activity in the test listed under Bos taurus is 71.6%; in the test with Rattus norvegicus [2], 8.19%; with Rattus norvegicus [3] it was 11.83%.
`O=C(CCCCc1ccccc1)NC1Cc2ccccc2C1`: the Activity in the test filed under Bos taurus stood at 31.1%.
